Experimental data: PubChem BioAssay (NCI)
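Assay format: 96-well plates, 48-hour exposure. At the GI50, growth is halved. At the TGI there is no net growth.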

Tests used:
Experiment in all cases: growth of human tumour cells (NCI), 48 h
786-0 renal = tested on: 786-0 renal
HOP-92 NSCLC = tested on: HOP-92 NSCLC
NCI-H23 lung = tested on: NCI-H23 lung
RXF 393 renal = tested on: RXF 393 renal
SW-620 colon = tested on: SW-620 colon
TK-10 renal = tested on: TK-10 renal
CCRF-CEM leukemia = tested on: CCRF-CEM leukemia
SF-539 CNS = tested on: SF-539 CNS
BT-549 breast = tested on: BT-549 breast
MDA-MB-435 = tested on: MDA-MB-435

Row | SMILES | TGI (786-0 renal) [µM] | TGI (HOP-92 NSCLC) [µM] | TGI (NCI-H23 lung) [µM] | TGI (RXF 393 renal) [µM] | TGI (SW-620 colon) [µM] | TGI (TK-10 renal) [µM] | TGI (CCRF-CEM leukemia) [µM] | TGI (SF-539 CNS) [µM] | TGI (BT-549 breast) [µM] | TGI (MDA-MB-435) [µM] | GI50 (786-0 renal) [µM] | GI50 (CCRF-CEM leukemia) [µM] | GI50 (HOP-92 NSCLC) [µM] | GI50 (NCI-H23 lung) [µM] | GI50 (RXF 393 renal) [µM] | GI50 (SF-539 CNS) [µM] | GI50 (SW-620 colon) [µM] | GI50 (TK-10 renal) [µM] | GI50 (BT-549 breast) [µM] | GI50 (MDA-MB-435) [µM]
1 | CCOC(=O)C1(C)CCCCC(=O)N1 (configuration not stated) | > 100 | > 100 | > 100 | > 100 | > 100 | > 100 |  |  |  |  |  |  |  |  |  |  |  |  |  | 
2 | CC(=O)C1=C(O)C2C3c4c[nH]c5cccc(c45)CC3C(C)(C)N2C1=O (configuration not stated) | > 100 | > 100 | 64.3 |  | > 100 | > 100 | > 100 | 44.4 |  |  |  |  |  |  |  |  |  |  |  | 
3 | O=C1c2ccccc2C(=O)c2c(OCCOCCO)cccc21 | > 100 | 96.9 | > 100 | > 100 | > 100 | > 100 |  | > 100 | > 100 | > 100 |  |  |  |  |  |  |  |  |  | 
4 | O=C(Nc1nc2c(ncn2C2OC(CO)C(O)C2O)c(=O)[nH]1)c1ccccc1 (configuration not stated) | > 100 | > 100 | > 100 | > 100 | > 100 | > 100 | > 100 | > 100 |  |  |  |  |  |  |  |  |  |  |  | 
5 | CCCCCCC[CH2][Sn]1([CH2]CCCCCCC)[O]C(=O)c2cccnc2[O]1 | > 100 | > 100 | > 100 | > 100 | > 100 | > 100 | > 100 | > 100 |  |  | > 100 | > 100 | > 100 | > 100 | > 100 | > 100 | > 100 | > 100 |  | 
6 | c1ccc2c(c1)cc1n2CC2CN=NC12 (configuration not stated) | > 100 |  |  | > 100 | > 100 |  |  | > 100 |  |  |  |  |  |  |  |  |  |  |  | 
7 | CC(SC(=O)Nc1ccc(N=Nc2ccccc2)cc1)C(=O)O (configuration not stated) | > 100 |  | > 100 | > 100 | > 100 | > 100 | > 100 | > 100 |  |  |  |  |  |  |  |  |  |  |  | 
8 | COc1ccc(N=N/C(C(=O)C(F)(F)F)=C(\O)c2ccc(Cl)cc2)cc1 | 83.6 |  | 54.4 | 45 | > 100 | 61.4 | > 100 | 39.8 | 47.2 | 8.77 | 6.63 | 4.61 |  | 11 | 12.3 | 6.33 | 4.36 | 18.3 | 7.04 | 2.49
9 | COc1cc(CCc2ccc(N)cc2)cc(OC)c1OC | > 100 | > 100 | > 100 | > 91.1 | > 100 | > 100 | > 100 | > 100 |  |  |  |  |  |  |  |  |  |  |  | 
10 | CC[C@H](C)[C@H](NC(=O)CN(C)C)C(=O)N(C)[C@H](C[C@@H](OC(C)=O)c1nc(C(=O)NC23CC(C(=O)OC)(C2)C3)cs1)C(C)C | > 25 | > 25 | > 25 |  | > 25 | > 25 | > 25 | 1.56 | > 13.9 | 0.298 | 0.741 | 0.0932 | > 25 | 1.22 |  | 0.307 | 0.163 | > 25 | 0.151 | 0.0461
11 | CN1CSC(=S)N(Cc2ccccc2)C1 | 44.2 |  | 36.6 | 24 | 12.4 | 9.41 | > 100 | 21.3 | 70.1 | 19.8 | 12 | 18 |  | 14.1 | 11.7 | 4.46 | 3.16 | 3.39 | 17.1 | 3.58
12 | COc1ccc(/C=C/C(=O)c2sc(-n3nc(-c4ccccc4)cc3-c3ccccc3)nc2C)cc1 | > 100 |  | > 100 | > 100 | > 100 | > 100 | > 100 | > 100 |  |  | > 100 | > 100 |  | > 100 | > 100 | > 100 | > 100 | > 100 |  | 
13 | COC(=O)C=Cc1ccc2nncnc2c1 (mixture of isomers) | > 100 |  |  |  | > 100 | > 100 | > 100 | > 100 | > 100 | 35.5 |  |  |  |  |  |  |  |  |  | 
14 | Cc1ccc(S(=O)(=O)N/N=C(/c2nc3ccc([N+](=O)[O-])cc3[nH]c2=O)C(O)c2ccc(C(O)/C(=N\NS(=O)(=O)c3ccc(C)cc3)c3nc4ccc([N+](=O)[O-])cc4[nH]c3=O)cc2)cc1 (configuration not stated) | > 100 | > 100 | > 100 | > 100 | > 100 | > 100 | > 100 | > 100 |  |  |  |  |  |  |  |  |  |  |  | 
15 | CN(c1ccccc1)c1c(Cl)c(=O)oc2c1ccc1occc12 | > 100 | > 100 | > 100 | > 100 | > 100 | > 100 | > 100 | > 100 |  |  |  |  |  |  |  |  |  |  |  | 
16 | CCn1c(-c2nonc2N)nc2cncc(C(=O)N3CC[C@H](N)C3)c21 | > 25 |  | > 25 | > 25 | > 25 | 9.22 | > 25 | > 25 | > 25 | > 25 | > 20.4 | 15.2 |  | > 25 | > 6.57 | 2.63 | > 25 | 0.549 | 3.92 | > 25
17 | CC(=O)NNc1nc(C)c(C(=O)NNC(=O)C(=O)Nc2ccc(Cl)cc2Cl)s1 | > 100 | 70.9 | 96.4 |  | 50.2 | > 100 | 56.2 | 99.5 |  |  |  |  |  |  |  |  |  |  |  | 
18 | COc1cc2c(=O)[nH]c3cc([N+](=O)[O-])ccc3c2cc1[N+](=O)[O-] | > 100 | > 100 | > 100 | 92.2 | > 100 | > 100 | > 100 | > 100 | > 100 |  | 11.9 | 3.99 | 15.8 | 3.69 | 6.99 | 4.65 | 3.81 | 3.29 | 7.89 | 
19 | CC1=C(C(=O)Nc2cc(F)c(F)cc2F)C(c2ccc([N+](=O)[O-])cc2)C(C(=O)Nc2cc(F)c(F)cc2F)=C(C)N1 | > 100 | 42.2 | > 100 | 63.2 | > 100 | 95.1 | 78.7 | > 100 |  |  |  |  |  |  |  |  |  |  |  | 
